We go through 31 molecules from patent US9464049B2, “Indole-carboxamides” (Hoffmann-La Roche Inc., priority 2013, dated 2016).

In data set [1] the test system is human embryonic stem cell derived neural stem cells (NSCs). Put plainly: Neural stem cell proliferation assay (neurogenesis assay, ATP levels by CellTiterGlo). The class given is cell-based. Particulars: Homo sapiens, Neural stem cell, 96 h; compound concentration at which 150% activity of control (100%) is reached; NSC proliferation by ATP (CellTiterGlo) after 4 days incubation; dose response 8 μM to 8 nM. The method, then:
Neural Stem Cell Proliferation Assay
Neurogenic properties of small molecules are determined based on the proliferation of human embryonic stem cell derived neural stem cells (NSCs) which were derived via a dual smad inhibition as previously described (Chambers, S. M., et al., Highly efficient neural conversion of human ES and iPS cells by dual inhibition of SMAD signaling, Nature biotechnology, 2009. 27(3): p. 275-80.)
Compounds respond is measured by the increase in cells based on ATP levels (Promega:CellTiterGlo®) after an incubation period of 4 days.
NSCs are thawed and expanded over 3 passages. On the 14th day, NSCs are seeded in Polyornithin/Laminin coated 384 well plates at a cell density of 21,000 cells/cm^2 in a media volume of 38 μl.
4 hours after cell seeding, compound solutions are added at a volume of 2 μl. Stock solutions of the compounds (water, 5% DMSO) are diluted to obtain a dose response (11 points, dilution factor is 2), ranging from 8 μM to 8 nM. Controls are run to consistently determine the neurogenic properties of the cells: • Negative (neutral) control is cell culture Media (final DMSO concentration: 0.25%). • Positive controls are: • 1. cell culture Media+100 ng/ml FGF2 (final DMSO concentration: 0.1%) • 2. cell culture Media+20 ng/ml EGF (final DMSO concentration: 0.1%) • 3. cell culture Media+100 ng/ml Wnt3a (final DMSO concentration: 0.1%)
After 4 days incubation at 37° C., 5% CO2, the amount of ATP per well is quantified. The ATP concentration is proportional to the cell number. ATP is quantified by using the Promega CellTiterGlo® kit. The CellTiterGlo® reagents contain a cell lysis buffer, a thermo stable luciferase (UltraGlo™ recombinant luciferase), magnesium and luciferin. Luciferin reacts with ATP producing oxyluciferin, AMP and light. The luminescence signal is proportional to the ATP content.
The value of negative (neutral) control is determined for each assay plate by taking the average of 16 negative control wells. The neurogenic compound response is calculated for each compound as (compound/Negative Control)*100.
The values of EC150 from the dose response curve are determined for each test compound. The EC150 is the compound concentration at which 150% activity of control (100%) is reached.

`Cc1c(C(N)=O)[nH]c2c(-c3ccc(Cl)c(F)c3)cc(Cl)cc12` [Example 31, 5-Chloro-7-(4-chloro-3-fluorophenyl)-3-methyl-1H-indole-2-carboxamide]: the melting point worked out at 283 °C. For the same molecule, the EC (150% of control) in data set [1] is 0.43 µM.
In turn, `Cc1c(C(N)=O)n(C)c2c(-c3ccc(Cl)c(F)c3)cc(Cl)cc12` [Example 32, 5-Chloro-7-(4-chloro-3-fluorophenyl)-1,3-dimethylindole-2-carboxamide] yielded a melting point of 192 °C. The molecule further showed an EC (150% of control) in data set [1] of 1.02 µM.
For `N#Cc1cc(-c2ccc(F)cc2)c2[nH]c(C(N)=O)cc2c1` [Example 34, 5-Cyano-7-(4-fluorophenyl)-1H-indole-2-carboxamide], in that order: 234 °C and 0.057 µM.
For `N#Cc1cc(-c2ccc(Cl)cc2)c2[nH]c(C(N)=O)cc2c1` [Example 35, 7-(4-Chlorophenyl)-5-cyano-1H-indole-2-carboxamide], in that order: 267.5 °C and 0.021 µM.
With `N#Cc1cc(-c2ccc(C(F)(F)F)cc2)c2[nH]c(C(N)=O)cc2c1` [Example 36, 5-Cyano-7-[4-(trifluoromethyl)phenyl]-1H-indole-2-carboxamide], the melting point is 277.5 °C. The EC (150% of control) in data set [1] amounted to 0.1 µM.
Take `Cn1c(C(N)=O)cc2cc(C#N)cc(-c3ccc(C(F)(F)F)cc3)c21` [Example 37, 5-Cyano-1-methyl-7-[4-(trifluoromethyl)-phenyl]-indole-2-carboxamide]: the melting point came to 171 °C. Also, the EC (150% of control) in data set [1] was 2.62 µM.
Molecule `Cn1c(C(N)=O)cc2cc(C#N)cc(-c3ccc(F)cc3)c21` [Example 38, 5-Cyano-7-(4-fluorophenyl)-1-methylindole-2-carboxamide] showed a melting point of 203.5 °C. Besides, the EC (150% of control) in data set [1] was determined as 0.19 µM.
For `Cn1c(C(N)=O)cc2cc(C#N)cc(-c3ccc(Cl)cc3)c21` [Example 39, 7-(4-Chlorophenyl)-5-cyano-1-methylindole-2-carboxamide], in that order: 176 °C and 0.18 µM.
On the same counts, the results for `Cn1c(C(N)=O)cc2cc(C#N)cc(-c3ccc(F)c(F)c3)c21` [Example 40, 5-Cyano-7-(3,4-difluorophenyl)-1-methylindole-2-carboxamide] are 184.5 °C and 0.2 µM.
On the same counts, the results for `N#Cc1cc(-c2ccc(F)cc2F)c2[nH]c(C(N)=O)cc2c1` [Example 41, 5-Cyano-7-(2,4-difluorophenyl)-1H-indole-2-carboxamide] are 289.5 °C and 0.025 µM.
In turn, `N#Cc1cc(-c2ccc(Cl)cc2Cl)c2[nH]c(C(N)=O)cc2c1` [Example 42, 5-Cyano-7-(2,4-dichlorophenyl)-1H-indole-2-carboxamide] registered a melting point of 276.5 °C. Moreover, in data set [1], the EC (150% of control) came out at 0.047 µM.
On the same counts, the results for `N#Cc1ccc(-c2cc(C#N)cc3cc(C(N)=O)[nH]c23)cc1` [Example 43, 5-Cyano-7-(4-cyanophenyl)-1H-indole-2-carboxamide] are 299 °C and 0.2 µM.
`N#Cc1cc(-c2ccc(OC(F)(F)F)cc2)c2[nH]c(C(N)=O)cc2c1` [Example 44, 5-Cyano-7-[4-(trifluoromethoxy)-phenyl]-1H-indole-2-carboxamide] yielded a melting point of 247 °C. Further, the EC (150% of control) in data set [1] is 0.17 µM.
For `Cc1c(C(N)=O)[nH]c2c(-c3ccc(F)cc3)cc(F)cc12` [Example 45, 5-Fluoro-7-(4-fluorophenyl)-3-methyl-1H-indole-2-carboxamide], in that order: 219 °C and 0.068 µM.
On the same counts, the results for `Cc1c(C(N)=O)[nH]c2c(-c3ccc(Cl)cc3)cc(F)cc12` [Example 46, 7-(4-Chlorophenyl)-5-fluoro-3-methyl-1H-indole-2-carboxamide] are 230 °C and 0.066 µM.
For `Cc1c(C(N)=O)[nH]c2c(-c3ccc(F)c(F)c3)cc(F)cc12` [Example 47, 7-(3,4-Difluorophenyl)-5-fluoro-3-methyl-1H-indole-2-carboxamide], in that order: 208 °C and 0.052 µM.
Consider `Cc1c(C(N)=O)[nH]c2c(-c3ccc(C(F)(F)F)cc3)cc(F)cc12` [Example 48, 5-Fluoro-3-methyl-7-[4-(trifluoromethyl)-phenyl]-1H-indole-2-carboxamide], for which the melting point is 200 °C. Also, the EC (150% of control) in data set [1] worked out at 0.11 µM.
On the same counts, the results for `Cc1c(C(N)=O)n(C)c2c(-c3ccc(F)cc3)cc(F)cc12` [Example 49, 5-Fluoro-7-(4-fluorophenyl)-1,3-dimethylindole-2-carboxamide] are 202 °C and 0.17 µM.
Consider `Cc1c(C(N)=O)n(C)c2c(-c3ccc(Cl)cc3)cc(F)cc12` [Example 50, 7-(4-Chlorophenyl)-5-fluoro-1,3-dimethylindole-2-carboxamide], for which the melting point turned out to be 210 °C. In addition, the EC (150% of control) in data set [1] was 0.12 µM.
`Cc1c(C(N)=O)n(C)c2c(-c3ccc(C(F)(F)F)cc3)cc(F)cc12` [Example 51, 5-Fluoro-1,3-dimethyl-7-[4-(trifluoromethyl)-phenyl]-indole-2-carboxamide]: the melting point was 222 °C. Moreover, the EC (150% of control) in data set [1] stood at 0.13 µM.
For `Cc1c(C(N)=O)n(C)c2c(-c3ccc(F)c(F)c3)cc(F)cc12` [Example 52, 7-(3,4-Difluorophenyl)-5-fluoro-1,3-dimethylindole-2-carboxamide], in that order: 186 °C and 0.7 µM.
In turn, `Cc1c(C(N)=O)[nH]c2c(-c3ccc(C#N)cc3)cc(F)cc12` [Example 53, 7-(4-Cyanophenyl)-5-fluoro-3-methyl-1H-indole-2-carboxamide] showed a melting point of 230 °C. Also, the EC (150% of control) in data set [1] came out at 0.04 µM.
On the same counts, the results for `Cc1c(C(N)=O)[nH]c2c(-c3ccc(OC(F)(F)F)cc3)cc(F)cc12` [Example 54, 5-Fluoro-3-methyl-7-[4-(trifluoromethoxy)phenyl]-1H-indole-2-carboxamide] are 108 °C and 0.2 µM.
Molecule `Cc1c(C(N)=O)[nH]c2c(-c3ccc(F)cc3F)cc(F)cc12` [Example 55, 7-(2,4-Difluorophenyl)-5-fluoro-3-methyl-1H-indole-2-carboxamide] showed a melting point of 200 °C. The molecule also yielded an EC (150% of control) in data set [1] of 0.026 µM.
For `Cc1c(C(N)=O)[nH]c2c(-c3ccc(Cl)cc3Cl)cc(F)cc12` [Example 56, 7-(2,4-Dichlorophenyl)-5-fluoro-3-methyl-1H-indole-2-carboxamide], in that order: 198 °C and 0.027 µM.
For `N#Cc1cc(-c2ccc(Cl)cc2F)c2[nH]c(C(N)=O)cc2c1` [Example 57, 7-(4-Chloro-2-fluorophenyl)-5-cyano-1H-indole-2-carboxamide], in that order: 286.5 °C and 0.066 µM.
As to `Cn1c(C(N)=O)cc2cc(C#N)cc(-c3ccc(Cl)cc3F)c21` [Example 58, 7-(4-Chloro-2-fluorophenyl)-5-cyano-1-methylindole-2-carboxamide], the melting point was found to be 192 °C. The EC (150% of control) in data set [1] came to 1.67 µM.
The molecule `Cc1c(C(N)=O)n(C)c2c(-c3ccc(C#N)cc3)cc(F)cc12` [Example 59, 7-(4-Cyanophenyl)-5-fluoro-1,3-dimethylindole-2-carboxamide] displayed a melting point of 245 °C. Besides, the EC (150% of control) in data set [1] was 0.083 µM.
On the same counts, the results for `Cc1c(C(N)=O)n(C)c2c(-c3ccc(OC(F)(F)F)cc3)cc(F)cc12` [Example 60, 5-Fluoro-1,3-dimethyl-7-[4-(trifluoromethoxy)phenyl]indole-2-carboxamide] are 171 °C and 0.22 µM.
On the same counts, the results for `Cc1c(C(N)=O)n(C)c2c(-c3ccc(Cl)cc3Cl)cc(F)cc12` [Example 61, 7-(2,4-Dichlorophenyl)-5-fluoro-1,3-dimethylindole-2-carboxamide] are 169 °C and 0.21 µM.
Regarding `Cn1c(C(N)=O)cc2cc(C#N)cc(-c3ccc(F)cc3F)c21` [Example 62, 5-Cyano-7-(2,4-difluorophenyl)-1-methylindole-2-carboxamide], the melting point was 206.5 °C. The molecule further gave an EC (150% of control) in data set [1] of 0.12 µM.
